The record followed here is patent publication US9751861B2, “N1-(3,3,3-trifluoro-2-hydroxo-2-methylpropionyl)-piperidine derivatives as inhibitors of pyruvate dehydrogenase kinase” (MERCK PATENT GMBH, priority 2013, dated 2017).

One assay concerns the target T1, PDHK2 (Homo sapiens, UniProt Q15119).
T1 construct: purchased Carna Bioscience
Description: Biochemical activity testing of PDHK2: PDC inactivation assay. As to conditions: human rec PDHK2, PDC from porcine heart, ATP 5 μM; read-out: IC50 PDHK2 (enzyme assay). The method, boiled down:
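Human recombinant PDHK2 (137 nM final) preincubated 30 min at RT with porcine heart PDC (20 mU/ml) and compound in pH 7.0 phosphate buffer, then phosphorylated with 5 μM ATP for 30 min at 37 °C. Residual PDC activity read as NADH fluorescence increase (Ex 340/Em 450) over 45 min; inhibitor-free reaction as full value, 3 mM DCA as zero, IC50 derived.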

Another assay addresses T2, human PDHK2 (12-407) (Homo sapiens, UniProt Q15119).
T2 construct: The human PDHK2 (12-407) was produced in E. coli; His-tag (cleaved yes); made in house; host or cells: E. coli
The experiment in a line: Isothermal titration calorimetry (ITC) binding. As to conditions: 30° C., pH 7.5. The method, boiled down:
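Untagged PDHK2 (12-407) from E. coli at 50 μM titrated into 5 μM compound at 30° C in pH 7.5 HEPES/KCl/MgCl2/phosphate buffer, ≤1% DMSO. One-site fit gave KA, ΔH^obs and N after heat-of-dilution correction; protein concentration referenced to a standard inhibitor and compound concentration adjusted to 1:1 stoichiometry.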
A general note: Isothermal titration calorimetry measures the heat released or taken up as one component is titrated into another.

The subject of another assay is PDH-Elalpha (pSer300). The experiment in a line: Cellular immunofluorescence assay in HEK293T cells. Type of assay: cell-based. As to conditions: Homo sapiens, HEK-293T, 5 hours incubation, anti-PDH-E1alpha pSer300 immunofluorescence, read-out: IC50 (cell data). As to the method: Cellular Assay for Determination of Compound Activities
Compound activities were determined in a cellular immunofluorescence assay. Human HEK293T cells were seeded into black 384-well plates with clear bottom and grown overnight.
Next day, test compounds were added to the wells and the plates incubated for 5 hours. Following this, cells were fixed with formaldehyde, permeabilised and blocked. The primary antibody, Anti-PDH-Elalpha (pSer300), AP1064 (Merck Millipore) was added and incubated overnight in the plate wells. Next, cells were washed and the seconday antibody, Alexa Fluor 488, goat anti-rabbit ab (A-11008, Invitrogen) was added together with Hoechst 33258 (H3569, Invitrogen) and incubated for 1 hour in the plate wells. Finally, cells were washed and the plates were measured on the laser scanning cytometer acumen hci (TTpLabtech).
The raw data were normalized against a pharmacological inhibitor control and dose response curves were generated by plotting the percent effect values using the software package Genedata screener (Genedata).

Each structure is given as a SMILES string. pIC50, pKd: −log10 of the molar value.

For orientation: pIC50 means −log10 of the IC50, conventionally taken in molar units. In general, pKd refers to −log10 of the Kd, conventionally taken in molar units. High values mean a low Kd, low ones a high Kd. `C[C@@](O)(C(=O)N1CCC(c2ccnn2-c2ccccc2)CC1)C(F)(F)F` [Compound A25, (R)-3,3,3-Trifluoro-2-hydroxy-2-methyl-1-[4-(2-phenyl-2H-pyrazol-3-yl)piperidin-1-yl]-propan-1-one]: the negative-log IC50 (pIC50) at PDHK2 and in the assay with PDH-Elalpha (pSer300) was 5.52 to 6.52 in each case. Further, the negative logarithm of the Kd (pKd) at human PDHK2 (12-407) was > 6.52.
As for `C[C@@](O)(C(=O)N1CCC(c2ccnn2-c2ccc(F)cc2F)CC1)C(F)(F)F` [Compound A26, (R)-1-{4-[2-(2,4-Difluoro-phenyl)-2H-pyrazol-3-yl]-piperidin-1-yl}-3,3,3-trifluoro-2-hydroxy-2-methyl-propan-1-one], the pIC50 at PDHK2 was > 6.52; in the assay on PDH-Elalpha (pSer300) it was 5.52 to 6.52. The pKd on human PDHK2 (12-407) is > 6.52.
Turning to `C[C@@](O)(C(=O)N1CCC(c2ccnn2-c2ccc(C(F)(F)F)cc2)CC1)C(F)(F)F` [Compound A27, (R)-3,3,3-Trifluoro-2-hydroxy-2-methyl-1-{4-[2-(4-trifluoromethyl-phenyl)-2H-pyrazol-3-yl]-piperidin-1-yl}-propan-1-one], the figures for the pIC50 on PDHK2 and with PDH-Elalpha (pSer300) were > 6.52 and 5.52 to 6.52, respectively. In addition, the pKd on human PDHK2 (12-407) is > 6.52.
Take `COc1ccc(-n2nccc2C2CCN(C(=O)[C@@](C)(O)C(F)(F)F)CC2)c(F)c1` [Compound A28, (R)-3,3,3-Trifluoro-1-{4-[2-(2-fluoro-4-methoxy-phenyl)-2H-pyrazol-3-yl]-piperidin-1-yl}-2-hydroxy-2-methyl-propan-1-one]: the results for the pIC50 on PDHK2 and in the assay on PDH-Elalpha (pSer300) were > 6.52 and 5.52 to 6.52, respectively. Besides, the negative-log Kd (pKd) on human PDHK2 (12-407) was > 6.52.
As to `C[C@@](O)(C(=O)N1CCC(c2cc(C(F)(F)F)nn2-c2ccc(Cl)cc2)CC1)C(F)(F)F` [Compound A35, (R)-1-{4-[2-(4-Chloro-phenyl)-5-trifluoromethyl-2H-pyrazol-3-yl]-piperidin-1-yl}-3,3,3-trifluoro-2-hydroxy-2-methyl-propan-1-one], the negative logarithm of the IC50 (pIC50) on PDHK2 is > 6.52; with PDH-Elalpha (pSer300), 5.52 to 6.52. Besides, on human PDHK2 (12-407), the negative-log Kd (pKd) was > 6.52.
With `CC(C)n1nccc1C1CCN(C(=O)[C@@](C)(O)C(F)(F)F)CC1` [Compound A36, (R)-1-[4-(2-Isopropyl-2H-pyrazol-3-yl)-piperidin-1-yl]-3,3,3-trifluoro-2-hydroxy-2-methyl-propan-1-one], the pIC50 at PDHK2 was 5.52 to 6.52; in the assay with PDH-Elalpha (pSer300), 4.30 to 5.52. On human PDHK2 (12-407), the negative logarithm of the Kd (pKd) was > 6.52.
For `C[C@@](O)(C(=O)N1CCC(c2ccnn2C2CCCCC2)CC1)C(F)(F)F` [Compound A37, (R)-1-[4-(2-Cyclohexyl-2H-pyrazol-3-yl)-piperidin-1-yl]-3,3,3-trifluoro-2-hydroxy-2-methyl-propan-1-one], in that order: 5.52 to 6.52, 4.30 to 5.52 and > 6.52.
Turning to `C[C@@](O)(C(=O)N1CCC(c2ccnn2Cc2ccccc2)CC1)C(F)(F)F` [Compound A38, (R)-1-[4-(2-Benzyl-2H-pyrazol-3-yl)-piperidin-1-yl]-3,3,3-trifluoro-2-hydroxy-2-methyl-propan-1-one], the pIC50 on PDHK2 and in the assay on PDH-Elalpha (pSer300) was 5.52 to 6.52 throughout. The pKd at human PDHK2 (12-407) was > 6.52.
As to `C[C@@](O)(C(=O)N1CCC(c2ccnn2-c2ccc(F)cc2Cl)CC1)C(F)(F)F` [Compound A39, (R)-1-{4-[2-(2-Chloro-4-fluoro-phenyl)-2H-pyrazol-3-yl]-piperidin-1-yl}-3,3,3-trifluoro-2-hydroxy-2-methyl-propan-1-one], the negative-log IC50 (pIC50) at PDHK2 was > 6.52; in the assay with PDH-Elalpha (pSer300) it was 5.52 to 6.52. The negative-log Kd (pKd) at human PDHK2 (12-407) is > 6.52.
On to `Cc1cc(C2CCN(C(=O)[C@@](C)(O)C(F)(F)F)CC2)n(-c2ccc(F)cc2)n1` [Compound A41, (R)-1-{4-[2-(4-Fluoro-phenyl)-5-methyl-2H-pyrazol-3-yl]-piperidin-1-yl}-3,3,3-trifluoro-2-hydroxy-2-methyl-propan-1-one], for which the negative-log IC50 (pIC50) is > 6.52 at PDHK2 and 5.52 to 6.52 in the assay with PDH-Elalpha (pSer300). Moreover, the negative logarithm of the Kd (pKd) on human PDHK2 (12-407) was > 6.52.
Turning to `C[C@@](O)(C(=O)N1CCC(c2cc(C(F)(F)F)nn2-c2ccc(F)cc2)CC1)C(F)(F)F` [Compound A42, (R)-1-{4-[2-(4-Fluoro-phenyl)-5-trifluoromethyl-2H-pyrazol-3-yl]-piperidin-1-yl}-3,3,3-trifluoro-2-hydroxy-2-methyl-propan-1-one], the pIC50 at PDHK2 and with PDH-Elalpha (pSer300) was 5.52 to 6.52 each time. The negative-log Kd (pKd) on human PDHK2 (12-407) was > 6.52.
Turning to `C[C@@](O)(C(=O)N1CCC(c2cc(C(F)(F)F)nn2-c2ccccc2)CC1)C(F)(F)F` [Compound A43, (R)-1-[4-(2-Phenyl-5-trifluoromethyl-2H-pyrazol-3-yl)-piperidin-1-yl]-3,3,3-trifluoro-2-hydroxy-2-methyl-propan-1-one], the negative-log IC50 (pIC50) at PDHK2 and with PDH-Elalpha (pSer300) was 5.52 to 6.52 throughout. For the same compound, the negative logarithm of the Kd (pKd) on human PDHK2 (12-407) was > 6.52.
Turning to `CC1CN(C(=O)[C@@](C)(O)C(F)(F)F)CCC1c1ccn(-c2ccc(F)cc2)n1` (stereo partly drawn) [Compound A44, (R)-1-{4-[1-(4-Fluoro-phenyl)-1H-pyrazol-3-yl]-3-methyl-piperidin-1-yl}-3,3,3-trifluoro-2-hydroxy-2-methyl-propan-1-one], the negative-log IC50 (pIC50) at PDHK2 and in the assay with PDH-Elalpha (pSer300) was 5.52 to 6.52 in each case. Besides, at human PDHK2 (12-407), the negative-log Kd (pKd) is > 6.52.
With `C[C@@H]1CN(C(=O)[C@@](C)(O)C(F)(F)F)CC[C@@H]1c1ccn(-c2ccc(F)cc2)n1` [Compound A46, (R)-3,3,3-Trifluoro-1-{(3S,4S)-4-[1-(4-fluoro-phenyl)-1H-pyrazol-3-yl]-3-methyl-piperidin-1-yl}-2-hydroxy-2-methyl-propan-1-one], the pIC50 on PDHK2 is > 6.52; with PDH-Elalpha (pSer300), 5.52 to 6.52. The negative logarithm of the Kd (pKd) on human PDHK2 (12-407) is > 6.52.
`COc1ccc(-n2nccc2C2CCN(C(=O)[C@@](C)(O)C(F)(F)F)CC2)cc1Cl` [Compound A48, (R)-3,3,3-Trifluoro-2-hydroxy-1-{4-[2-(3-chloro-4-methoxy-phenyl)-2H-pyrazol-3-yl]-piperidin-1-yl}-2-methyl-propan-1-one]: the negative-log IC50 (pIC50) was > 6.52 at PDHK2 and 5.52 to 6.52 in the assay on PDH-Elalpha (pSer300). Moreover, the pKd at human PDHK2 (12-407) was > 6.52.
On to `C[C@@](O)(C(=O)N1CCC(c2ccnn2-c2ccc(OCC(F)(F)F)cc2)CC1)C(F)(F)F` [Compound A49, (R)-3,3,3-Trifluoro-2-hydroxy-2-methyl-1-(4-{2-[4-(2,2,2-trifluoro-ethoxy)phenyl]-2H-pyrazol-3-yl}-piperidin-1-yl)-propan-1-one], for which the pIC50 was > 6.52 on PDHK2 and 5.52 to 6.52 with PDH-Elalpha (pSer300). Further, the pKd on human PDHK2 (12-407) was > 6.52.
Turning to `COc1ccc(-n2nccc2C2CCN(C(=O)[C@@](C)(O)C(F)(F)F)CC2)cn1` [Compound A53, (R)-3,3,3-Trifluoro-2-hydroxy-1-{4-[2-(6-methoxy-pyridin-3-yl)-2H-pyrazol-3-yl]-piperidin-1-yl}-2-methyl-propan-1-one], the pIC50 on PDHK2 and with PDH-Elalpha (pSer300) was 5.52 to 6.52 in each case. The pKd at human PDHK2 (12-407) was > 6.52.
For `C[C@@](O)(C(=O)N1CCC(n2c(-c3ccccc3F)n[nH]c2=O)CC1)C(F)(F)F` [Compound A54, 5-(2-Fluoro-phenyl)-4-[1-((R)-3,3,3-trifluoro-2-hydroxy-2-methyl-propionyl)piperidin-4-yl]-2,4-dihydro-[1,2,4]triazol-3-one], the results for the negative logarithm of the IC50 (pIC50) on PDHK2 and in the assay on PDH-Elalpha (pSer300) were 5.52 to 6.52 and 4.30 to 5.52, respectively. The compound also gave a negative-log Kd (pKd) on human PDHK2 (12-407) of 5.52 to 6.52.
